SMILES strings stand for the structures. Bounds are passed on as bounds.

The target in the experiment is recombinant human Myt1 (Homo sapiens (Human), UniProt Q99640). Briefly: Myt1 enzymatic assay (ADP-Glo kinase assay). The format is biochemical. The note with it: 18 nM enzyme, 10 uM ATP. As for the experimental part: Detection of Myt1 kinase activity utilized a recombinant human Myt1 kinase assay measuring the hydrolysis of ATP using a commercially available ADP-Glo Assay (ADP-Glo™ Kinase Assay from Promega, 10 000 assays, #V9102). […] After this, 5 μL of compounds (diluted in reaction buffer to 0.5% DMSO) was added to the microplate and the plate was spun briefly and incubated at 22° C. for 15 minutes. Ultra-Pure Adenosine Triphosphate (ATP) solution (ADP-Glo kit from Promega) was diluted in reaction buffer and 5 μL was added to the microplate, spun down briefly and incubated for 60 minutes at 30° C. […] After the 60-minute incubation, 15 µL of ADP-Glo reagent was added and the plate was spun briefly and sealed and incubated in the dark for 40 minutes at 22° C. […] Luminescence was read using the Envision (250 ms integration). The IC50 and the % max inhibition were calculated for each inhibitor compound tested.
Chain of recombinant human Myt1 (Q99640 whole entry): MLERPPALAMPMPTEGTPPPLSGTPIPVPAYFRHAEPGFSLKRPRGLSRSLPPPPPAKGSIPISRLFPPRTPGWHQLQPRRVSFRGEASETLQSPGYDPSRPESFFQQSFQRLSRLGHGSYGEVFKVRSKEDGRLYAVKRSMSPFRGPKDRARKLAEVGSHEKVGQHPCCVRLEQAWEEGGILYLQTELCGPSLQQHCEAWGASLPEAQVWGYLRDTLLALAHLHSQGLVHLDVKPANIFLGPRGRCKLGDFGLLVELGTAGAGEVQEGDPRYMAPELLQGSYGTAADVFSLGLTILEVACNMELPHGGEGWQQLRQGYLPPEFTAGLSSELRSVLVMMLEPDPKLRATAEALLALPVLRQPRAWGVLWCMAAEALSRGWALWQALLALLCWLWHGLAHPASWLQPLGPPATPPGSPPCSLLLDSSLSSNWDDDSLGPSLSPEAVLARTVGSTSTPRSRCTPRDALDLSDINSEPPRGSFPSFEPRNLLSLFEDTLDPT
On the technique in general: In ADP-Glo the light output rises with the ADP produced.
As to `NC(=O)c1c(N)n(-c2cccc3[nH]ncc23)c2ncc(C3CC3)nc12` [Compound 330, 6-amino-2-cyclopropyl-5-(1H-indazol-4-yl)pyrrolo[2,3-b]pyrazine-7-carboxamide], the IC50 worked out at 106 nM.

Turning to `CCCCc1cnc2c(n1)c(C(N)=O)c(N)n2-c1cccc2[nH]ncc12` [Compound 331], the IC50 came to 1320 nM.

As for `NC(=O)c1c(N)n(-c2cccc3[nH]ncc23)c2ncc(-c3nccs3)nc12` [Compound 332], the 50% inhibitory concentration (IC50) worked out at 142 nM.

On to `NC(=O)c1c(N)n(-c2cccc3[nH]ncc23)c2ncc(-c3ncc(F)cc3F)nc12` [Compound 333, 6-amino-2-(3,5-difluoro-2-pyridyl)-5-(1H-indazol-4-yl)pyrrolo[2,3-b]pyrazine-7-carboxamide], for which the IC50 amounted to 52 nM.

In the case of `NC(=O)c1c(N)n(-c2cccc3[nH]ncc23)c2ncc(Cl)cc12` [Compound 334, 2-amino-5-chloro-1-(1H-indazol-4-yl)pyrrolo[2,3-b]pyridine-3-carboxamide], the half-maximal inhibitory concentration (IC50) was found to be 50 nM.

Take `Cc1ccc2[nH]ncc2c1-n1c(N)c(C(N)=O)c2cc(Cl)cnc21` [Compound 335]: the half-inhibitory concentration (IC50) is 40 nM.

As for `Cc1cc2c(C(N)=O)c(N)c(-c3c(C)ccc(O)c3C)n2cc1C` [Compound 336, 2-amino-3-(3-hydroxy-2,6-dimethylphenyl)-6,7-dimethylindolizine-1-carboxamide], the IC50 came to 38 nM.

With `Cc1cn2c(C(N)=O)c(N)c(-c3c(C)ccc(O)c3C)c2nc1C` [Compound 337, 7-amino-8-(3-hydroxy-2,6-dimethylphenyl)-2,3-dimethylpyrrolo[1,2-a]pyrimidine-6-carboxamide], the 50% inhibitory concentration (IC50) is less than 10 nM.

Turning to `Cc1cc2c(-c3c(C)ccc(O)c3C)c(N)c(C(N)=O)n2cc1C` [Compound 338, 2-amino-1-(3-hydroxy-2,6-dimethylphenyl)-6,7-dimethylindolizine-3-carboxamide], the 50% inhibitory concentration (IC50) turned out to be 108 nM.

In the case of `Cc1ccc(O)cc1-c1cn(C(N)=O)c2cc(Cl)cnc12` [Compound 345, 6-chloro-3-(5-hydroxy-2-methyl-phenyl) pyrrolo[3,2-b]pyridine-1-carboxamide], the IC50 was 323 nM.

Consider `Cc1ccc(O)c(C)c1-n1cc(C(N)=O)c2cc(Cl)ccc21` [Compound 346, 5-chloro-1-(3-hydroxy-2,6-dimethylphenyl)-1H-indole-3-carboxamide], for which the half-maximal inhibitory concentration (IC50) turned out to be 234 nM.

What is called IC50 is the concentration that inhibits the measured activity by half.

Source of the values: US12435090B2, “Compounds, pharmaceutical compositions, and methods of preparing compounds and of their use” (Repare Therapeutics Inc., priority 2021, dated 2025).
